21 compounds from ChEMBL document CHEMBL1127696, “Non-peptide renin inhibitors containing 2-(((3-phenylpropyl)phosphoryl)oxy)alkanoic acid moieties as P2-P3 replacements” (J Med Chem, 1994) can be followed below.

The target of assay [1] is T1, Renin (Homo sapiens, UniProt P00797).
T1 sequence (P00797 whole entry): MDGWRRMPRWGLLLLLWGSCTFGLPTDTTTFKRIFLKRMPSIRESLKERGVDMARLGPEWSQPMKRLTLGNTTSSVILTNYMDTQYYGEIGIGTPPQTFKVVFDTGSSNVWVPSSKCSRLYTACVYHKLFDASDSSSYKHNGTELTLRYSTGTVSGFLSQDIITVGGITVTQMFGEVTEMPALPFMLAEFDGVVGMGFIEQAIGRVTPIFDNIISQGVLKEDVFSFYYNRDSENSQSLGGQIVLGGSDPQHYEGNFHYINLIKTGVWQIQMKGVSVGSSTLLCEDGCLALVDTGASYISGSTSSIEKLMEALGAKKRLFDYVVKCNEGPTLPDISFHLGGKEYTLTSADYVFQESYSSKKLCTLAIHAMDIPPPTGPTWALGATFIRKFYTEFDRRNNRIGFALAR
Description: In vitro inhibition of human renin.

In assay [2] the target is T2, Cathepsin D (Bos taurus, UniProt P80209).
T2 sequence (P80209 whole entry): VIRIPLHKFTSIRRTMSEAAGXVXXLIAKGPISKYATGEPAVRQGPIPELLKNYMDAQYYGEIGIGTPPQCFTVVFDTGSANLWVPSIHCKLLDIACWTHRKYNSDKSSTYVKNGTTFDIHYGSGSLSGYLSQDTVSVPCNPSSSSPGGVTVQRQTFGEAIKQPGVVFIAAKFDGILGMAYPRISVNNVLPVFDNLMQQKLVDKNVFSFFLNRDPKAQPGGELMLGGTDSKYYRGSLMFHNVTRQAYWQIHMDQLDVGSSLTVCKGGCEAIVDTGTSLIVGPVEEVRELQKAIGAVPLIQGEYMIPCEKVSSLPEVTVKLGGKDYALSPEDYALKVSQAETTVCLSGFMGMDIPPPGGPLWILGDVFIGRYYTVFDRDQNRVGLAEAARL
Description: In vitro inhibition of bovine cathepsin D.

Assay [3] deals with Pepsin A (Sus scrofa, UniProt P00791). Description: In vitro inhibition of porcine pepsin.
Sequence of Pepsin A (P00791 whole entry): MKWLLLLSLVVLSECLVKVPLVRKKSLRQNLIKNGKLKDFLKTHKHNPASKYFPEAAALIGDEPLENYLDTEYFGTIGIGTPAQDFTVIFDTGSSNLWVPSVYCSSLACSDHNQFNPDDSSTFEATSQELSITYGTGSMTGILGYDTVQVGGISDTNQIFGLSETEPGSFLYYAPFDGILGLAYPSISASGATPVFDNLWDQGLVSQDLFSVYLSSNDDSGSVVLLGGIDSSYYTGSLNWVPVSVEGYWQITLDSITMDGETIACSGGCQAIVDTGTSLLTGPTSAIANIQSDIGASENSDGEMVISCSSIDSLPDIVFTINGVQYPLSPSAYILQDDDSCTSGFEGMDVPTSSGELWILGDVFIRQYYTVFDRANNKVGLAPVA

As for `CCCCNC(=O)[C@H](C)C[C@H](O)[C@H](CC1CCCCC1)NC(=O)[C@@H](C)OP(=O)(O)CCCc1ccccc1`, the IC50 in assay [1] is 16 nM; in assay [2], more than 10000 nM; in assay [3], more than 10000 nM.

In the case of `CCCCNC(=O)[C@H](C)C[C@H](O)[C@H](CC1CCCCC1)NC(=O)[C@@H](CCC)OP(=O)(O)CCCc1ccccc1`, the IC50 in assay [1] is 3.8 nM; in assay [2], more than 10000 nM; in assay [3], more than 10000 nM.

`CCCC[C@H](OP(=O)(O)CCCc1ccccc1)C(=O)N[C@@H](CC1CCCCC1)[C@@H](O)C(O)CC(C)C` (stereo partly drawn): the half-maximal inhibitory concentration (IC50) was 25 nM in assay [1], more than 10000 nM in assay [2] and more than 10000 nM in assay [3].

In the case of `CCCCNC(=O)[C@@H](C)C[C@@H](O)[C@@H](CC1CCCCC1)NC(=O)[C@H](CCCC)OP(=O)(O)CCCCc1ccccc1`, the IC50 in assay [1] was 360 nM; in assay [2], more than 10000 nM; in assay [3], more than 10000 nM.

For `CCCCNC(=O)[C@H](C)C[C@H](O)[C@H](CC1CCCCC1)NC(=O)[C@H](CCCC)OP(=O)(O)CCCc1ccccc1`, the IC50 is 2.5 nM in assay [1], more than 10000 nM in assay [2] and more than 10000 nM in assay [3].

`CCCCNC(=O)[C@H](C)C[C@H](O)[C@H](CC1CCCCC1)NC(=O)[C@H](C)OP(=O)(O)CCCc1ccccc1`: the IC50 in assay [1] was 17.5 nM; in assay [2], more than 10000 nM; in assay [3], more than 10000 nM.

Take `CCCC[C@H](OP(=O)(O)CCCc1ccccc1)C(=O)N[C@@H](CC1CCCCC1)[C@@H](O)CCSc1ccccn1`: the IC50 in assay [1] is 115 nM; in assay [2], more than 10000 nM; in assay [3], more than 10000 nM.

With `CCCC[C@H](OP(=O)(O)CCCc1ccccc1)C(=O)N[C@@H](CC1CCCCC1)[C@@H](O)C(=O)OC(C)C`, the IC50 was 55 nM in assay [1], more than 10000 nM in assay [2] and more than 10000 nM in assay [3].

Regarding `CCCC[C@H](OP(=O)(O)CCCc1ccccc1)C(=O)N[C@@H](CC1CCCCC1)[C@@H](O)CC(=O)N[C@@H](C(=O)NCc1cnc(C)nc1N)[C@@H](C)CC`, the IC50 in assay [1] is 58 nM; in assay [2], more than 10000 nM; in assay [3] it was more than 10000 nM.

Take `CCCCNC(=O)[C@@H](C)C[C@@H](O)[C@@H](CC1CCCCC1)NC(=O)[C@H](CCCC)OP(=O)(O)CCc1ccccc1`: the IC50 in assay [1] was 46 nM; in assay [2], more than 10000 nM; in assay [3] it was more than 10000 nM.

On to `CCCCNC(=O)[C@@H](C)C[C@@H](O)[C@@H](CC1CCCCC1)NC(=O)[C@H](CCCC)OP(=O)(O)CCCc1ccccc1`, for which the IC50 was 4.8 nM in assay [1], more than 10000 nM in assay [2] and more than 10000 nM in assay [3].

Take `CCCCNC(=O)[C@H](C)C[C@H](O)[C@H](CC1CCCCC1)NC(=O)[C@H](CCC)OP(=O)(O)CCCc1ccccc1`: the IC50 in assay [1] is 4.2 nM; in assay [2], more than 10000 nM; in assay [3] it was more than 10000 nM.

Consider `CCCCNC(=O)[C@@H](C[C@H](O)[C@H](CC(C)C)NC(=O)[C@H](CCCC)OP(=O)(O)CCCc1ccccc1)C(C)C`, for which the IC50 in assay [1] was 2.8 nM; in assay [2], 2300 nM; in assay [3], 10000 nM.

For `CCCCNC(=O)[C@H](C)C[C@H](O)[C@H](CC1CCCCC1)NC(=O)[C@@H](CCCC)OP(=O)(CCCc1ccccc1)OCC` (stereo in doubt; 7i), the IC50 in assay [1] is 22.5 nM; in assay [2] it was more than 10000 nM; in assay [3] it was more than 10000 nM.

With `CCCCNC(=O)[C@H](C)C[C@H](O)[C@H](CC1CCCCC1)NC(=O)[C@@H](CCCC)OP(=O)(CCCc1ccccc1)OCC` (stereo in doubt; 7j), the values for the IC50 in assay [1], in assay [2] and in assay [3] were 350 nM, more than 10000 nM and more than 10000 nM, respectively.

For the compound `CCCCNC(=O)[C@H](C)C[C@H](O)[C@H](CC1CCCCC1)NC(=O)[C@H](CCCC)OP(=O)(CCCc1ccccc1)OCC` (stereo in doubt; 7k), the values for the IC50 in assay [1], in assay [2] and in assay [3] were 15 nM, 2800 nM and more than 10000 nM, respectively.

Turning to `CCCCNC(=O)[C@H](C)C[C@H](O)[C@H](CC1CCCCC1)NC(=O)[C@H](CCCC)OP(=O)(CCCc1ccccc1)OCC` (stereo in doubt; 7l), the IC50 in assay [1] was 215 nM; in assay [2] it was more than 10000 nM; in assay [3], more than 10000 nM.

Turning to `CCC[C@@H](OP(=O)(CCCc1ccccc1)OCC)C(=O)N[C@@H](CC1CCCCC1)[C@@H](O)[C@@H](O)CC(C)C` (stereo in doubt; 8f), the IC50 in assay [1] was 17.7 nM; in assay [2] it was 2150 nM; in assay [3] it was more than 10000 nM.

Consider `CCC[C@@H](OP(=O)(CCCc1ccccc1)OCC)C(=O)N[C@@H](CC1CCCCC1)[C@@H](O)[C@@H](O)CC(C)C` (stereo in doubt; 8g), for which the IC50 in assay [1] is 130 nM; in assay [2] it was more than 10000 nM; in assay [3] it was more than 10000 nM.

For the compound `CCC[C@@H](OP(=O)(CCCc1ccccc1)OCC)C(=O)N[C@@H](CC1CCCCC1)[C@@H](O)[C@@H](O)C1CC1` (stereo in doubt; 8h), the IC50 in assay [1] is 20 nM; in assay [2], 4150 nM; in assay [3], more than 10000 nM.

As to `CCC[C@@H](OP(=O)(CCCc1ccccc1)OCC)C(=O)N[C@@H](CC1CCCCC1)[C@@H](O)[C@@H](O)C1CC1` (stereo in doubt; 8i), the IC50 was 155 nM in assay [1], more than 10000 nM in assay [2] and more than 10000 nM in assay [3].
